Active and inactive are the calls of the source.
How the values were obtained:
[1] = molecular target: T1, Carboxy-terminal domain RNA polymerase II polypeptide A small phosphatase 1 (Homo sapiens, UniProt Q9GZU7); assay: CTDSP1 inhibitors, concentration-response, biochemical, absorbance readout, ultra-high-throughput screen actives (AID 540297); assay type: functional
T1 sequence (Q9GZU7 whole entry): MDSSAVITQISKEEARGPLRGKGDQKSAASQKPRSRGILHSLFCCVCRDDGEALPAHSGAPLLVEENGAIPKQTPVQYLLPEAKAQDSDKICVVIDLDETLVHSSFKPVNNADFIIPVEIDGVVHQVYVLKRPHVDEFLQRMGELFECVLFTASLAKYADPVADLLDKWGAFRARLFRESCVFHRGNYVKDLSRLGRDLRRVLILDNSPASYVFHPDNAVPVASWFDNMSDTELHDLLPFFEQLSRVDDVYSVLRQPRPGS

[2] = molecular target: DNA (cytosine-5)-methyltransferase 1 (Homo sapiens, UniProt P26358); assay: inhibition of DNA methylation by DNMT1 – biochemical, fluorescent molecular beacon, confirmation (AID 602386); assay type: functional
[3] = molecular target: T2, High affinity choline transporter 1 (Homo sapiens, UniProt Q9GZV3); assay: human choline transporter blockers, potency – cell-based, 10-point CRC, membrane potential dye, dose response (AID 588401); assay type: functional;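 further: membrane potential dye fluorescence of choline-evoked depolarization via CHT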
T2 sequence (Q9GZV3 whole entry): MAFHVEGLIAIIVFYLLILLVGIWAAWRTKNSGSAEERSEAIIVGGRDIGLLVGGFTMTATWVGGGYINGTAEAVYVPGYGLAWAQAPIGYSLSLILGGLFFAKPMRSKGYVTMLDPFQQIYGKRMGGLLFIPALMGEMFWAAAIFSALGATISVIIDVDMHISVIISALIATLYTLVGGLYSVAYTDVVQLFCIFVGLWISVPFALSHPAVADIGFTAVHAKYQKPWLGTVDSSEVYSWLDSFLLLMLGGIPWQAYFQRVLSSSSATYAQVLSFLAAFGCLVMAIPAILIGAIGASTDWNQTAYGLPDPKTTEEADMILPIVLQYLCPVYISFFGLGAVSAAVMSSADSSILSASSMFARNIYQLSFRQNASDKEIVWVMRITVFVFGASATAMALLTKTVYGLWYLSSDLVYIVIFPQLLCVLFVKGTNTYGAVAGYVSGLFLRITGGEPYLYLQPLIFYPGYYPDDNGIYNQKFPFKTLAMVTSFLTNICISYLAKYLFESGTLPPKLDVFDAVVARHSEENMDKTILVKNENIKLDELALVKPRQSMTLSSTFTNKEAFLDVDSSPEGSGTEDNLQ

[4] = molecular target: Voltage-dependent T-type calcium channel subunit alpha-1H (Homo sapiens, UniProt O95180); assay type: functional;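 further: channel activity triggered by adding a high calcium stimulation buffer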
[5] = molecular target: T2, High affinity choline transporter 1; assay: human choline transporter blockers, potency – cell-based, 5-point CRC, membrane potential dye, dose response (AID 504840); assay type: functional
[6] = molecular target: DNA dC->dU-editing enzyme APOBEC-3A (Homo sapiens, UniProt P31941); assay: SAR analysis of small molecule inhibitors of APOBEC3A DNA Deaminase via a fluorescence-based single-stranded DNA deaminase assay - Set 2.; assay type: functional; conditions: read-out: IC50_Mean
[7] = molecular target: DNA dC->dU-editing enzyme APOBEC-3G (Homo sapiens, UniProt Q9HC16); assay: SAR analysis of small molecule inhibitors of APOBEC3G DNA Deaminase via a fluorescence-based single-stranded DNA deaminase assay - Set 2.; assay type: functional; conditions: read-out: IC50_Mean
[8] = molecular target: T3, Beta-adrenergic receptor kinase 1 (Homo sapiens, UniProt P25098); assay: aptamer displacement from bead-bound GRK2 – biochemical, cherry pick 1, bead flow cytometry, dose response (AID 504500)
T3 sequence (P25098 whole entry): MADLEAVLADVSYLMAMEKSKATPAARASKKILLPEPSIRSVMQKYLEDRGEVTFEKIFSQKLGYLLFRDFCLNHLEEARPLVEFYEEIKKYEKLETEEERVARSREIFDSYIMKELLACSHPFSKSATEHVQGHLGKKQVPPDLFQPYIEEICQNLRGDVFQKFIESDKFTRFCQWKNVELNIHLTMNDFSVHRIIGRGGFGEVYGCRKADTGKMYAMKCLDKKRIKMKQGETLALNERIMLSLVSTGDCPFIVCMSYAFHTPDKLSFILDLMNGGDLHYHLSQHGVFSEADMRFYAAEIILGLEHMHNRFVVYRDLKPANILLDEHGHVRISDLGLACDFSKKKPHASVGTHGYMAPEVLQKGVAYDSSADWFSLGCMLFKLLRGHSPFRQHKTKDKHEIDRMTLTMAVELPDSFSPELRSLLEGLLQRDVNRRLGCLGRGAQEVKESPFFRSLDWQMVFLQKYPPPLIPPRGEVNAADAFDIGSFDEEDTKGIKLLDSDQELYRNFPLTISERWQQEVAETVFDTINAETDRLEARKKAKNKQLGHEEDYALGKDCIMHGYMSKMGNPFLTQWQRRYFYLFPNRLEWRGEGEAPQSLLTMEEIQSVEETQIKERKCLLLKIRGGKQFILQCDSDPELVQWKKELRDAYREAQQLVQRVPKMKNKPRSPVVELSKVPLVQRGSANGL

Caspase-6 = molecular target: T4, Caspase-6 (Homo sapiens, UniProt P55212); assay: inhibition of CASP6 peptide cleavage – biochemical, VEID-R110 fluorescence, cherry-pick, dose response (AID 720632)
T4 sequence (P55212 whole entry): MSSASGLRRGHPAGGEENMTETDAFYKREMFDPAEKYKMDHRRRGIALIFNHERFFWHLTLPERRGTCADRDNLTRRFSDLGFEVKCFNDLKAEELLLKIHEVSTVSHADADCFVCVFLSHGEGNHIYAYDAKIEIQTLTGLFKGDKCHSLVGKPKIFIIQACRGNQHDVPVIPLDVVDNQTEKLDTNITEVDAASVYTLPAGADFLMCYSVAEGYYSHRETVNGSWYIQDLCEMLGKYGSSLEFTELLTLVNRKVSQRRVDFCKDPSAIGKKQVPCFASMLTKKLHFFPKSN

[9] = molecular target: T5, Apoptotic protease-activating factor 1 (Homo sapiens, UniProt O14727); assay: SAR analysis of small molecule Activators of Apaf-1 in a Fluorescent assay.; assay type: functional; conditions: read-out: EC50_Mean;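 further: caspase-3 cleavage of fluorogenic Rh110 DEVD substrate downstream of apoptosome activation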
T5 sequence (O14727 whole entry): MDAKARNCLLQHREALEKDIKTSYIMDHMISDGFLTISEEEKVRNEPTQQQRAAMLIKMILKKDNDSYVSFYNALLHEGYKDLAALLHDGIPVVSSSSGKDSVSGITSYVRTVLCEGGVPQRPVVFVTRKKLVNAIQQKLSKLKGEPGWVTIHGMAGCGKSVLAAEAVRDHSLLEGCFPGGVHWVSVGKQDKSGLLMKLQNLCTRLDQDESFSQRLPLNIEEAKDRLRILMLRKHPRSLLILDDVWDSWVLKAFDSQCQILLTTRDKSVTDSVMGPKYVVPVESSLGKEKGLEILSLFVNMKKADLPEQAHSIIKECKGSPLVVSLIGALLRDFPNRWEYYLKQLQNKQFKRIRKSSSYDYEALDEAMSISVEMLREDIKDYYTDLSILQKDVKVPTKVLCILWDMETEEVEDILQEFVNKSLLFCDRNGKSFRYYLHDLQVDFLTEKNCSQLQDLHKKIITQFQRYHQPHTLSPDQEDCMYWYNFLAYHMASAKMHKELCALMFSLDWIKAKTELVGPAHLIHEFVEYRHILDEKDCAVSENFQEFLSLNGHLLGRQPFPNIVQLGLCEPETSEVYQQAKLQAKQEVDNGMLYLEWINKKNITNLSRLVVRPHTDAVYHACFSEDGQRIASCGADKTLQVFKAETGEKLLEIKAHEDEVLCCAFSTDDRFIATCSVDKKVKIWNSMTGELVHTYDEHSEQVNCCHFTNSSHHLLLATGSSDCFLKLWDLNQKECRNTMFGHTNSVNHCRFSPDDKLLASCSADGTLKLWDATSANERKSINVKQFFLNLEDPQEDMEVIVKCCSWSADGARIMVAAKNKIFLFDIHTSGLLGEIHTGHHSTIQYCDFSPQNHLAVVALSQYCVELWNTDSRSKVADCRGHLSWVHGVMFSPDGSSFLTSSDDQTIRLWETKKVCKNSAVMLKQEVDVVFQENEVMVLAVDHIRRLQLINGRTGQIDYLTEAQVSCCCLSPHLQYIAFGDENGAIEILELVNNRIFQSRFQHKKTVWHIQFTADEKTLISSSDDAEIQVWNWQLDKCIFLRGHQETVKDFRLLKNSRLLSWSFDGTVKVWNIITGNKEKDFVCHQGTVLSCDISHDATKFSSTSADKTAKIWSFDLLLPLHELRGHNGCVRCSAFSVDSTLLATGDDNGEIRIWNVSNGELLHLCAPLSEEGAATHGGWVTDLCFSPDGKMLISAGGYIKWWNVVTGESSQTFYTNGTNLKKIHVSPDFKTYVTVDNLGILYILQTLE

[10] = THP-1 cell cytotoxicity, cytotoxicity control, set 4 (AID 504911); assay type: functional; conditions: Mycobacterium tuberculosis
[11] = molecular target: Tyrosine-protein phosphatase non-receptor type 11 (Homo sapiens, UniProt Q06124); assay: PTPN11 enzyme inhibitors – biochemical, selectivity assay for STEP inhibitor project, dose response (AID 602367); assay type: functional; conditions: read-out: IC50_Mean
[12] = molecular target: Dual specificity protein phosphatase 3 (Homo sapiens, UniProt P51452); assay: VHR phosphatase inhibition, dose response, selectivity assay for STEP inhibitor project, biochemical (AID 602374); assay type: functional; conditions: read-out: IC50_Mean
[13] = molecular target: Tyrosine-protein phosphatase non-receptor type 5 (Homo sapiens, UniProt P54829); assay: PTPN5 enzyme inhibition – biochemical, fluorescence intensity, uHTS hits, confirmation (AID 602372); assay type: functional; conditions: read-out: IC50_Mean
Melanocortin receptor 4 = Melanocortin receptor 4 (Homo sapiens, UniProt P32245); assay type: functional, cell-based;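 further: Cell-based assay with luminescence read-out, confirmatory dose-response testing for agonist activity of biased ligands at MC4R; human U2OS cells with tagged receptor and beta-arrestin; potency of agonists that increase receptor coupling to beta-arrestin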
Cysteine protease ATG4B = Cysteine protease ATG4B (Homo sapiens, UniProt Q9Y4P1); assay type: functional;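 further: Fluorescence-based dose-response confirmation assay measuring inhibition of ATG4B activity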
Phospholipase A2 = Phospholipase A2 (Homo sapiens, UniProt P04054); assay type: functional;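 further: confirmatory dose-response counterscreen on phospholipase A2, testing hits that came from an ultra-high-throughput screen for ATG4B inhibitors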
[14] = molecular target: Glucose-6-phosphate 1-dehydrogenase (Homo sapiens, UniProt P11413); assay: inhibition of Homo sapiens G6PD, dose series – biochemical, fluorescence, selectivity assay for P. falciparum G6PD inhibitor project, dose response (AID 504792); assay type: functional
[15] = viability of uninfected HEp-2 cells – cell-based, HTS, cytotoxicity control for RSV inhibitor project, dose response (AID 2410); assay type: functional; conditions: human respiratory syncytial virus
[16] = molecular target: T6, Aryl hydrocarbon receptor (Homo sapiens, UniProt P35869); conditions: Potency;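 further: confirmatory quantitative high-throughput screen measuring activation of the AhR signaling pathway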
T6 sequence (P35869 whole entry): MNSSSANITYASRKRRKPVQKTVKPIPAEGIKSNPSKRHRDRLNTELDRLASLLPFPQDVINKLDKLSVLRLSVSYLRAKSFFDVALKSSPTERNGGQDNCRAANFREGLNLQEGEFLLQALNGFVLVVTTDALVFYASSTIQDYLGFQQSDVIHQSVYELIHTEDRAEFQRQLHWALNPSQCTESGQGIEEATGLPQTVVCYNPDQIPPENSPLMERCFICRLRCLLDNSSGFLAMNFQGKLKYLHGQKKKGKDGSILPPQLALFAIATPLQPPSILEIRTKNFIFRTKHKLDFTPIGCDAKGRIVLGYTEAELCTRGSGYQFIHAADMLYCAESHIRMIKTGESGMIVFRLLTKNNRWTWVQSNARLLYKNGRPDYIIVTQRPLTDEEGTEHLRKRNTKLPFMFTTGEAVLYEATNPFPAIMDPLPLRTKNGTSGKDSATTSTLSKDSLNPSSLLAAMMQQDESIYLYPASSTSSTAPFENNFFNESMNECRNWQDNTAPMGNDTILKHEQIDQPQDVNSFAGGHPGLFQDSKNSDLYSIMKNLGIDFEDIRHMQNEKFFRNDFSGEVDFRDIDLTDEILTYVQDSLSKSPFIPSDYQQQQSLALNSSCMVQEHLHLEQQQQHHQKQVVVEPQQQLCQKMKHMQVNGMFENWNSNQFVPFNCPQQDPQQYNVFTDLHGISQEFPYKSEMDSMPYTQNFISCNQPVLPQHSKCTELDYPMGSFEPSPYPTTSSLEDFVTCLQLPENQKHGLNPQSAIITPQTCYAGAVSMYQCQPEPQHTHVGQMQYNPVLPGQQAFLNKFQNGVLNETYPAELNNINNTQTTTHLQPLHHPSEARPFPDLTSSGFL

Chain of Cysteine protease ATG4B (Q9Y4P1 whole entry): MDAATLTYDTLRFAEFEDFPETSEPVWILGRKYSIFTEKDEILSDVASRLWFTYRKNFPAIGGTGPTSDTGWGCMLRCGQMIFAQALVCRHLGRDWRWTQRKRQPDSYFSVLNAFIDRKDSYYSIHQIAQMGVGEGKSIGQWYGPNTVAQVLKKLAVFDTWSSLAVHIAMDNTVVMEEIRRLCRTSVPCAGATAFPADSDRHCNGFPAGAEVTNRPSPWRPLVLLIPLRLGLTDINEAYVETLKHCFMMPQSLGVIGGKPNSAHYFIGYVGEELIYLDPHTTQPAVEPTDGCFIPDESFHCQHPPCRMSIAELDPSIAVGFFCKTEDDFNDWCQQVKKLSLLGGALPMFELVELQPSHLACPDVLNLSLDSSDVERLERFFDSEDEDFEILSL
Chain of DNA dC->dU-editing enzyme APOBEC-3G (Q9HC16 whole entry): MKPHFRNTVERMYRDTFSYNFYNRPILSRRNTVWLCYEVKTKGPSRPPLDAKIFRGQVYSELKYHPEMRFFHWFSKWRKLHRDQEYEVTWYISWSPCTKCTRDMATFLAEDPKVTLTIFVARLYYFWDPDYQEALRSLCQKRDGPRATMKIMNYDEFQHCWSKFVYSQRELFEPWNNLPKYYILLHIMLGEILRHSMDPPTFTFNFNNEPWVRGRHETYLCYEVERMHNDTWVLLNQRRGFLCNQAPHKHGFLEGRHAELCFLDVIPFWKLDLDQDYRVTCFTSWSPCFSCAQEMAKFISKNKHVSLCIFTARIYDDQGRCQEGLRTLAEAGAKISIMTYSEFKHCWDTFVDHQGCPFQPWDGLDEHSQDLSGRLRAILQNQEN
Chain of Phospholipase A2 (P04054 whole entry): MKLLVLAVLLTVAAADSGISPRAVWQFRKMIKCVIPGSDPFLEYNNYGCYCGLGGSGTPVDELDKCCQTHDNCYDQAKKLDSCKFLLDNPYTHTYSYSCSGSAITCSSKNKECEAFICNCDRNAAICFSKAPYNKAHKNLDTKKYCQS
Chain of DNA dC->dU-editing enzyme APOBEC-3A (P31941 whole entry): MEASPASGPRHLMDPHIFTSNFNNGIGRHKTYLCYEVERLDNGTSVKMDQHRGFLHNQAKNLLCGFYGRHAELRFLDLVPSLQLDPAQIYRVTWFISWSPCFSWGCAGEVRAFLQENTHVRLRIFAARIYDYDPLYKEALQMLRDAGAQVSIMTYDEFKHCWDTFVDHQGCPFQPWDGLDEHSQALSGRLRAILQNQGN
Chain of Glucose-6-phosphate 1-dehydrogenase (P11413 whole entry): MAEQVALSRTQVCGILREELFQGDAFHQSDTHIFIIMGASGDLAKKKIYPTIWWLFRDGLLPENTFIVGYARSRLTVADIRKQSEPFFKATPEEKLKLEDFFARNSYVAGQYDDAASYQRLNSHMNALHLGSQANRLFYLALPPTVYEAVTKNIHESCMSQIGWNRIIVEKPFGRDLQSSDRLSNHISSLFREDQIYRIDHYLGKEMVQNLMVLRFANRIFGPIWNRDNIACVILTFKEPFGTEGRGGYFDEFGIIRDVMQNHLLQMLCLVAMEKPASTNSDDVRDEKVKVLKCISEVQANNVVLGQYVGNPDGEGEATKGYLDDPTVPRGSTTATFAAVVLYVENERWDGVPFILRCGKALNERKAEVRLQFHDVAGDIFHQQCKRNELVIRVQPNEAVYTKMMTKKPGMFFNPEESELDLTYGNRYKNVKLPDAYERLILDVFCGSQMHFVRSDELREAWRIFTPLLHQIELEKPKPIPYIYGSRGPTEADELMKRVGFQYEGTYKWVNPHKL
Chain of Tyrosine-protein phosphatase non-receptor type 11 (Q06124 whole entry): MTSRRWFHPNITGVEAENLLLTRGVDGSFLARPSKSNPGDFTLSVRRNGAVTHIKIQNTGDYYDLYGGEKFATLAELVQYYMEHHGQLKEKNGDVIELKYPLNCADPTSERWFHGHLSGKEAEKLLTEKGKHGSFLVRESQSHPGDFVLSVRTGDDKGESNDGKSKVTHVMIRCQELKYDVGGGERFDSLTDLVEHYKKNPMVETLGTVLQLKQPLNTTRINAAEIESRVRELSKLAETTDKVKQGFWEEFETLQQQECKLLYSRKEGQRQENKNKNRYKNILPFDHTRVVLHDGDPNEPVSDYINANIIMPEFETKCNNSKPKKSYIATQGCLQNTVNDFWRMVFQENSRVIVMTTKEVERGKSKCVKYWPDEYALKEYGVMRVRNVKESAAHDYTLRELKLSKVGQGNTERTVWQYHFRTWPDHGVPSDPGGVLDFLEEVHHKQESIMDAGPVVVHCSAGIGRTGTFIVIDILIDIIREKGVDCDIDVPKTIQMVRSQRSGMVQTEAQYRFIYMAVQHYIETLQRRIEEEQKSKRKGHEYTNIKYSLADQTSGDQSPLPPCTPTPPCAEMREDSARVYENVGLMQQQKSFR
Chain of Melanocortin receptor 4 (P32245 whole entry): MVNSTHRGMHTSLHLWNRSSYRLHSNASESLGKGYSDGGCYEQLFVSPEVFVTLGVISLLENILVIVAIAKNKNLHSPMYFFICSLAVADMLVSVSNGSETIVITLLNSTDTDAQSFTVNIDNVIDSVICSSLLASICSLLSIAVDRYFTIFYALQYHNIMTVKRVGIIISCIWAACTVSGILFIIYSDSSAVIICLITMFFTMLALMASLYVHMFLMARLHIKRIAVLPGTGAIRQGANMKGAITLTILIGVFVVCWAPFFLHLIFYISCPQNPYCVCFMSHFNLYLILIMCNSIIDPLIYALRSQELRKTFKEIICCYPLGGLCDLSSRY
Chain of Tyrosine-protein phosphatase non-receptor type 5 (P54829 whole entry): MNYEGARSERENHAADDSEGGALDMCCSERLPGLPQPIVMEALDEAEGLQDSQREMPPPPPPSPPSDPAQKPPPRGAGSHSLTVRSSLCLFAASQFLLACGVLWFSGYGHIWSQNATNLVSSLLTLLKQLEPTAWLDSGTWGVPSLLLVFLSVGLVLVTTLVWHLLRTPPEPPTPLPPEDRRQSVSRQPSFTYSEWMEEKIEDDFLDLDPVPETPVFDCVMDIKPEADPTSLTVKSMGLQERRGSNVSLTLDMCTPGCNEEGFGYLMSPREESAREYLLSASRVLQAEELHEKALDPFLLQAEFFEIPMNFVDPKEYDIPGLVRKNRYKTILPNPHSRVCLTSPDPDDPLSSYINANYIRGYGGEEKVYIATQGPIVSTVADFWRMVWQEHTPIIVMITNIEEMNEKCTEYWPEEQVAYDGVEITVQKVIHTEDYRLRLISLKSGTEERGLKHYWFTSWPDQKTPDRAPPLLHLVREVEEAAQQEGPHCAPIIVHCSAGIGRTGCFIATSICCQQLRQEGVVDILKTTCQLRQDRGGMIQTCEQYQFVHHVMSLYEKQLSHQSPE
Chain of DNA (cytosine-5)-methyltransferase 1 (P26358 whole entry): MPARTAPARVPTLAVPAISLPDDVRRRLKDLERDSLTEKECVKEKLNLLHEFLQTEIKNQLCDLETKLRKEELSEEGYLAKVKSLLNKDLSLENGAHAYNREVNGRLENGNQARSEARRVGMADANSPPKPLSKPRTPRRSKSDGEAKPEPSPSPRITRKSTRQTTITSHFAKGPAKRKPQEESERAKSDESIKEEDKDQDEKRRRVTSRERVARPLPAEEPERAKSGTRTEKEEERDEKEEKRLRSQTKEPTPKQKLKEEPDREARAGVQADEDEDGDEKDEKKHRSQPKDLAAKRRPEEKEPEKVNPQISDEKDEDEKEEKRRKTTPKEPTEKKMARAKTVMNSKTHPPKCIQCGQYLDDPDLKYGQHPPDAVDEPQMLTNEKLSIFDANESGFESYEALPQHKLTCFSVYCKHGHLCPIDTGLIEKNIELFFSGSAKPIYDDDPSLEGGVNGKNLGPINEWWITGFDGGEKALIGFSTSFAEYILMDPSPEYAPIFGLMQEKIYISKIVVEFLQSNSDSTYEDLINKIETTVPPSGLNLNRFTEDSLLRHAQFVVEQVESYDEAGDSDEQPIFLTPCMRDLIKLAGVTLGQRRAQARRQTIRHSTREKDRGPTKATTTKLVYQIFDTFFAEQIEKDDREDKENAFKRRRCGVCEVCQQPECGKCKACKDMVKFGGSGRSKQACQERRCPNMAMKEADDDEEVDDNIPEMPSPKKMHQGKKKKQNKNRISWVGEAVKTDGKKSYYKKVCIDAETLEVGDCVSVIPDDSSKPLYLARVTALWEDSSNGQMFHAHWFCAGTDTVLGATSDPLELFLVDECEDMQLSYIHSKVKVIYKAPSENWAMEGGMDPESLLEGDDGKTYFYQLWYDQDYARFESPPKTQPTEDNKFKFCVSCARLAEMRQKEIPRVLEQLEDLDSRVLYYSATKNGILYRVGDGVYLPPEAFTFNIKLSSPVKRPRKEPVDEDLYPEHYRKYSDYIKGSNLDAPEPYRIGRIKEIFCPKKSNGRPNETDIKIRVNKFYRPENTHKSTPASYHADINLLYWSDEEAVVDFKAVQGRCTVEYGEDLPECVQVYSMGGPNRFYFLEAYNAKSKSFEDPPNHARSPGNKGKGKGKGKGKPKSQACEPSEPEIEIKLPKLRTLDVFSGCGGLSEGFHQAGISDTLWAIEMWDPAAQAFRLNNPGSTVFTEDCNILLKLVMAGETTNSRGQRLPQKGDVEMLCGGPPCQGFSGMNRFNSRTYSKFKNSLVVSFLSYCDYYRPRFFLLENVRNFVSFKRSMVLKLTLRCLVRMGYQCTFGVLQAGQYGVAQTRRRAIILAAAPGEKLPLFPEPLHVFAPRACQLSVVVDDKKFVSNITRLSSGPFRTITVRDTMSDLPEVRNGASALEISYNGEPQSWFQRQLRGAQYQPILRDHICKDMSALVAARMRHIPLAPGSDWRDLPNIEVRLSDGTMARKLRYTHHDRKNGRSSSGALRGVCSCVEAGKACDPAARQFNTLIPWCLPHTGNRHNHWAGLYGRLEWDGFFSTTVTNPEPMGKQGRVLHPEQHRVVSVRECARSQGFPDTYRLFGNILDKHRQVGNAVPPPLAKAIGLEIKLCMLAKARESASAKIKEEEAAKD
Chain of Dual specificity protein phosphatase 3 (P51452 whole entry): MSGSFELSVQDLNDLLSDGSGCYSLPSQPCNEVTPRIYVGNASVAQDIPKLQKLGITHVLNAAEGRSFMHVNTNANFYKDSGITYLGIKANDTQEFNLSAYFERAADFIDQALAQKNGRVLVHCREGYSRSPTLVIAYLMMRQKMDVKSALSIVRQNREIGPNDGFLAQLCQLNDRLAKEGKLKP

In the case of `COc1cc(/C=C(\CCC(=O)O)c2nc3ccccc3s2)ccc1OCC(=O)Nc1c(Cl)cccc1Cl`, the IC50 [1] is reported as 2.3 µM (active) and the IC50 [2] is reported as 10.1 µM (active).
In the case of `O=C(Nc1nnc(C(F)(F)F)s1)C1COc2ccccc2O1` (configuration not stated), the IC50 [3] is reported as 1.26 µM (active), the EC50 [4] is reported as 6.26 µM (active) and the IC50 [5] is reported as 1.55 µM (active).
With `CN(Cc1ccccc1)C(=O)c1nn2cccnc2c1Cl` the IC50 [6] was 73.8 µM (inactive) and the IC50 [7] was > 99 µM (inactive).
For `CCOc1ccc(CCNC(=O)C2CC(C)=CCC2C(=O)O)cc1OCC` (configuration not stated), the EC50 [8] was 51.3 µM (inactive), the IC50 [1] was 21 µM (active) and the AC50 (Caspase-6) was 15.5 µM (active).
With `COC(=O)C(C)(N)Cc1c[nH]c2ccccc12` (configuration not stated) the EC50 [9] was > 100 µM (inactive).
With `CCn1cc(C(=O)NCCCN2CCC(C)CC2)c(=O)c2cc(S(=O)(=O)N(C)C3CCCCC3)ccc21` the IC50 [3] was 7.94 µM (active) and the IC50 [5] was 7.24 µM (active).
For `Cc1nc2sc3c(c2c2n[nH]c(=S)n12)CCCC3`, the IC50 [6] was > 99 µM (inactive) and the IC50 [7] was 0.693 µM (active).
For `O=C(CSc1nccc(=O)[nH]1)NC1CCCCC1`, the CC50 [10] was > 100 µM (active).
For `CCCN(CC(=O)Nc1ccccc1OC)C(=O)Cc1ccc2c(c1)CCC2`, the IC50 [11] was 4.79 µM (active), the IC50 [12] was 1.32 µM (active) and the IC50 [13] was 19.5 µM (active).
For `Cc1ccc2[nH]c(=O)c3cc(C(=O)N(CCCOC(C)C)Cc4ccco4)sc3c2c1`, the EC50 (Melanocortin receptor 4) was > 89.2 µM (inactive).
With `Clc1cccc(Cl)c1CNc1ccc(N2CCCC2)cc1` the IC50 (Cysteine protease ATG4B) was 11.9 µM (active), the IC50 (Phospholipase A2) was 7.99 µM (active) and the IC50 [14] was > 80 µM (inactive).
With `O=C(CCCn1c(=S)[nH]c2cc3c(cc2c1=O)OCO3)N1CCN(c2ccc(F)cc2)CC1` the IC50 (Cysteine protease ATG4B) was 13.5 µM (active), the IC50 (Phospholipase A2) was 7.34 µM (active) and the CC50 [15] was 26.2 µM (active).
With `N[C@@H](Cc1c[nH]c2ccc(O)cc12)C(=O)O` [OXITRIPTAN] the AC50 [16] was 39.8 µM (inconclusive).

Reference: ChEMBL document CHEMBL1201862, “PubChem BioAssay data set” (2004)
